Test results: US10730887B2, “Compound containing tricyclic heteroaryl group” (Hangzhou Innogate Pharma Co., Ltd., priority 2016, dated 2020)

Columns and labels:
Assay type in all cases: biochemical
[1] = target: EGFR (Homo sapiens, UniProt P00533); assay: EGFR kinase activity inhibition, Caliper mobility shift assay
Description: (§1) EGFR and EGFR (T790M/L858R) protein kinase activities were determined using the Caliper mobility shift assay. The compound was dissolved in DMSO and diluted with kinase buffer (EGFR (T790M/L858R): 50 mM HEPES at pH 7.5, 0.0015% Brij-35, 10 mM MgCl2, 2 mM DTT; EGFR: pH 7.5 50 mM HEPES, 0.0015% Brij-35, 10 mM MgCl2, 10 mM MnCl2, 2 mM DTT), 5 μL of 5 times the final concentration of the compound (10% DMSO) was added to a 384-well plate. Add 10 μL of 2.5-fold enzyme (using EGFR and EGFR (1790M/L858R), respectively) and incubate for 10 minutes at room temperature, then add 10 μL of 2.5-fold substrate (Peptide FAM-P22 and ATP) solution. After incubation at 28° C. for 60 minutes, the reaction was stopped by adding 25 μL of stop solution (100 mM HEPES, 0.015% Brij-35, 0.2% Coating Reagent #3, 50 mM EDTA, pH 7.5). Conversion rate data was read on a Caliper EZ Reader II (Caliper Life Sciences). The conversion rate was converted into inhibition rate data (% inhibition rate=(max−conversion rate)/(max−min)*100). Where max is the conversion of the DMSO control and min is the conversion of the enzyme-free control Curves were plotted with compound concentration and inhibition rate on the horizontal and vertical coordinates, and the curve was fitted using XLFit excel add-in version 4.3.1 software and IC50 was calculated.

[2] = target: EGFR (T790M/L858R) (Homo sapiens, UniProt P00533, L858R/T790M); assay: EGFR (T790M/L858R) kinase activity inhibition, Caliper mobility shift assay
Sequence of EGFR (T790M/L858R) (P00533 25-1210 T790M/L858R): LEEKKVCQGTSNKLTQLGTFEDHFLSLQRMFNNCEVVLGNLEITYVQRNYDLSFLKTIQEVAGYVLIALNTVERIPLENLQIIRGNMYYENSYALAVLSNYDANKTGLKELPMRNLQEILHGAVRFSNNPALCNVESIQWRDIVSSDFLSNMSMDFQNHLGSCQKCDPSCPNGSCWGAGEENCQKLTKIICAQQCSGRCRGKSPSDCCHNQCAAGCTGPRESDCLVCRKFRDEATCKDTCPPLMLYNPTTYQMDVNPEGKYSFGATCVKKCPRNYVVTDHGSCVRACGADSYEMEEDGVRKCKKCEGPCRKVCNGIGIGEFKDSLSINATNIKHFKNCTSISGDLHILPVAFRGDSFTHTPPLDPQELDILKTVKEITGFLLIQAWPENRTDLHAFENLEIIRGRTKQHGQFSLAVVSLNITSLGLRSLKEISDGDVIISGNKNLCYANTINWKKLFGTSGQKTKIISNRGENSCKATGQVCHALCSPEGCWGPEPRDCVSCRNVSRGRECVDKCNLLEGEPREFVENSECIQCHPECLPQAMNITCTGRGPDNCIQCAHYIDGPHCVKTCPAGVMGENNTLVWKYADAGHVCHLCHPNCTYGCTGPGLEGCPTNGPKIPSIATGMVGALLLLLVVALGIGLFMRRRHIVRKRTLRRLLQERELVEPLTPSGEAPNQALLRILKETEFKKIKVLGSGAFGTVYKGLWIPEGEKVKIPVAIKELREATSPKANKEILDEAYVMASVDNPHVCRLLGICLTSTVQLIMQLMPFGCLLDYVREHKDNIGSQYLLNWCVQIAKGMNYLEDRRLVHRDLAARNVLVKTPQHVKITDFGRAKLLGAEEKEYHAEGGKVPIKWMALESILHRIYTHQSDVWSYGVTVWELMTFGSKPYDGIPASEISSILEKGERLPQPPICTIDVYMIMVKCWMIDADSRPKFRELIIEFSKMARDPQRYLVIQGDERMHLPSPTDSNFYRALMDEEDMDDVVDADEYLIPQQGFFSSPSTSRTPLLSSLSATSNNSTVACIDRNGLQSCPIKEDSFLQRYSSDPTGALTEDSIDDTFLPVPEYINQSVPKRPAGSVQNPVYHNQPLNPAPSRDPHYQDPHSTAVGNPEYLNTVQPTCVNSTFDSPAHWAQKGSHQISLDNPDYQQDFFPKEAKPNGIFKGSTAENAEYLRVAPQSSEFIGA
Description: as §1

[3] = target: SYK (Homo sapiens, UniProt P43405); assay: Syk kinase activity inhibition, Caliper mobility shift assay
Description: SYK protein kinase activity was determined using the Caliper mobility shift assay. The compound was dissolved in DMSO and diluted with kinase buffer (20 mM HEPES, 0.01% Triton X-100, 5 mM MgCl2, 1 mM MnCl2, 2 mM DTT), and 5 μL of 5 times final concentration was added to the 384-well plate Compound (10% DMSO). After adding 10 μL of 2.5-fold enzyme (with SYK) solution, incubate for 10 minutes at room temperature, and then add 10 μL of 2.5-fold substrate (Peptide FAM-P22 and ATP) solution. Incubate at 28° C. for 30 minutes, then stop the reaction by adding 25 μL of stop solution (100 mM HEPES, 0.015% Brij-35, 0.2% Coating Reagent #13, 50 mM EDTA, pH 7.5). Conversion rate data was read on a Caliper EZ Reader II (Caliper Life Sciences) The conversion rate was converted into inhibition rate data (% inhibition rate=(max−conversion rate)/(max−min)*100). Where max is the conversion of the DMSO control and min is the conversion of the enzyme-free control. Curves were plotted with compound concentration and inhibition rate on the horizontal and vertical coordinates, and the curve was fitted using XLFit excel add-in version 4.3.1 software and IC50 was calculated.

[4] = target: Jak2 (Homo sapiens, UniProt O60674); assay: Jak2 kinase activity inhibition, Caliper Reader
Sequence of Jak2 (O60674 whole entry, species assumed): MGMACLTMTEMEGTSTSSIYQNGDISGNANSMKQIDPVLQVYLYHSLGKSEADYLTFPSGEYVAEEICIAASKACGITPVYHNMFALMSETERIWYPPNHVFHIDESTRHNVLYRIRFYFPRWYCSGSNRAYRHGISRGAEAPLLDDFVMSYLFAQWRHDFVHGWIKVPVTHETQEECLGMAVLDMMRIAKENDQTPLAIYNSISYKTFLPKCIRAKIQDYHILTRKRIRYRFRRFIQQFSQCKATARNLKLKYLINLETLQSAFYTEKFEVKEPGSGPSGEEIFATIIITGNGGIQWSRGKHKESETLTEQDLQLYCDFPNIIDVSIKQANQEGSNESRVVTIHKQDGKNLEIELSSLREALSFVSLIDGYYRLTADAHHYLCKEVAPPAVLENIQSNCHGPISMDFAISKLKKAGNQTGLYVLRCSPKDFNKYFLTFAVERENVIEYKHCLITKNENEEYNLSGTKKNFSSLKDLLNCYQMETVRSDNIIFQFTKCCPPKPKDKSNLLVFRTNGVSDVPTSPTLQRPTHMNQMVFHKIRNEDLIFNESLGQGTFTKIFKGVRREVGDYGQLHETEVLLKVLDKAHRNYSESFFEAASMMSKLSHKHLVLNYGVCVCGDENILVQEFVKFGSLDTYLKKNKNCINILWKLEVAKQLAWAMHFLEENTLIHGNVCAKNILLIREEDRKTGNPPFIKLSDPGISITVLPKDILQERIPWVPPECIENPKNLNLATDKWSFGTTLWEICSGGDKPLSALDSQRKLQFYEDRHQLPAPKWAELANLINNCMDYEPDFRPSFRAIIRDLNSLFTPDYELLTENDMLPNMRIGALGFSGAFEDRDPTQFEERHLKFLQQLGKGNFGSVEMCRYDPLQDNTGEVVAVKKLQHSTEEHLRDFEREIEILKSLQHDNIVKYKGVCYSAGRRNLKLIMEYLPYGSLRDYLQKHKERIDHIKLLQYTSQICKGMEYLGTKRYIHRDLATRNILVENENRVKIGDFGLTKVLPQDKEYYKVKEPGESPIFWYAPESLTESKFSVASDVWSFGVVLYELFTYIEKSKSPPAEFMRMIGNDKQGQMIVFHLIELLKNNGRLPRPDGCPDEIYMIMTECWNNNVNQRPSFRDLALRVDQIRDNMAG
Description: Kinase JAk1 and Jak2 enzyme inhibition IC50 evaluation experiments: The buffer was configured with the following components: 50 mM HEPES, pH 7.5, 0.00015% Brij-35. Compounds were placed in a concentration gradient in 100% DMSO and diluted to 10% DMSO with buffer and added to 384 well plates. For example, when the initial concentration of the compound is […], it is made into 12.5 μM with 100% DMSO, and diluted by 5 or 6 concentrations, and then diluted 10-fold with buffer to prepare an intermediate dilution of the compound containing 10% DMSO. Transfer 5 μL, to 384-well plate. The Jak1 and Jak2 enzymes were diluted to the optimal concentration with the following buffer: 50 mM HEPES, pH 7.5, 0.00015% Brij-35, 2 mM DTT. Transfer 10 μL to a 384-well plate and incubate with the compound for 10-15 minutes. The substrate was diluted to the optimal concentration with the following buffer: 50 mM HEPES, pH 7.5, 0.00015% Brij-35, 10 mM MgCl2, adenosine triphosphate at Km. The reaction was initiated by adding 10 μL to a 384-well plate and reacted at 28° C. for 1 hour. The conversion rate was then read using a Caliper Reader and the inhibition rate was calculated. The formula is as follows: Percent inhibition=(max−conversion)/(max−min)*100. Where max is the conversion of the DMSO control and min is the conversion of the enzyme-free control. Fit the IC50 value with XLFit excel add-in version 5.4.0.8. Fitting formula: Y=Bottom+(Top−Bottom)/(1+(IC50/X)^HillSlope).

[5] = target: T1, FLT3 (Homo sapiens, UniProt P36888); assay: FLT3 kinase activity inhibition, Caliper mobility shift assay
T1 sequence (P36888 27-993): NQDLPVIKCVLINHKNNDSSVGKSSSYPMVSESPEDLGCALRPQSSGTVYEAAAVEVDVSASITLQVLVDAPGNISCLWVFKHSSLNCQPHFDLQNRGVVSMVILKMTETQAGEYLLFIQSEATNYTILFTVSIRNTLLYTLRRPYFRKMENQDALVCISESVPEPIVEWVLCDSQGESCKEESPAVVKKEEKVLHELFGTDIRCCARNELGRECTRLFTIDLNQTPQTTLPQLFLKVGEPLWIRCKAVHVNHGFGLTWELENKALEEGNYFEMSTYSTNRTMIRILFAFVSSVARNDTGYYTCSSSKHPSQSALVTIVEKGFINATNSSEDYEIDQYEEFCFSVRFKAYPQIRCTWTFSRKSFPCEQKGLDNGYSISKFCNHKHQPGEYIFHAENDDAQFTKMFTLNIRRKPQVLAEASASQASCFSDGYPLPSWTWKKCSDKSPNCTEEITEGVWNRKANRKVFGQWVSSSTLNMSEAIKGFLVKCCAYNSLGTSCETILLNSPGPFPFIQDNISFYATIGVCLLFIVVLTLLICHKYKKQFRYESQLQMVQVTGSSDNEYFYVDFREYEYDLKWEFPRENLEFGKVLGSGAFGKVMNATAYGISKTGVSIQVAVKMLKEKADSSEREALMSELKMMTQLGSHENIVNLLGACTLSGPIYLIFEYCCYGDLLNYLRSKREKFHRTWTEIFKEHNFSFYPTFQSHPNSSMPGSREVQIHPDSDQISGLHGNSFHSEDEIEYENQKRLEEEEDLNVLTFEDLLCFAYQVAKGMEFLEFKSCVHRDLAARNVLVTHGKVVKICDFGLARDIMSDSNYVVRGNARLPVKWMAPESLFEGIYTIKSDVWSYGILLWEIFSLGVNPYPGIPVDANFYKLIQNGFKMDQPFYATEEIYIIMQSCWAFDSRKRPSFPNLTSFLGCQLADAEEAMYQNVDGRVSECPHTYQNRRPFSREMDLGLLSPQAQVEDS
Description: FLT3 protein kinase activity was measured using the Caliper mobility shift assay. The compound was dissolved in DMSO and diluted with a kinase buffer (50 mM HEPES, pH 7.5, 0.0015% Brij-35, 2 mM DTT), and 5 μL of a 5-fold final concentration of the compound (10% DMSO) was added to a 384-well plate. After adding 10 μL of 2.5-fold FLT3 enzyme solution, incubate for 10 minutes at room temperature, and then add 10 μL of a 2.5-fold substrate (FAM-labeled polypeptide and ATP) solution. After incubation at 28° C. for 60 minutes, the reaction was stopped by adding 25 μL of stop solution (100 mM HEPES, 0.015% Brij-35, 0.2% Coating Reagent #3, 50 mM EDTA, pH 7.5). Conversion rate data was read on a Caliper EZ Reader II (Caliper Life Sciences). The conversion rate was converted into inhibition rate data (% inhibition rate=(max−conversion rate)/(max−min)*100). Where max is the conversion of the DMSO control and min is the conversion of the enzyme-free control Curves were plotted with compound concentration and inhibition rate on the horizontal and vertical coordinates, and the curve was fitted using XLFit excel add-in version 4.3.1 software and IC50 was calculated.

Sequence of EGFR (P00533 25-1210): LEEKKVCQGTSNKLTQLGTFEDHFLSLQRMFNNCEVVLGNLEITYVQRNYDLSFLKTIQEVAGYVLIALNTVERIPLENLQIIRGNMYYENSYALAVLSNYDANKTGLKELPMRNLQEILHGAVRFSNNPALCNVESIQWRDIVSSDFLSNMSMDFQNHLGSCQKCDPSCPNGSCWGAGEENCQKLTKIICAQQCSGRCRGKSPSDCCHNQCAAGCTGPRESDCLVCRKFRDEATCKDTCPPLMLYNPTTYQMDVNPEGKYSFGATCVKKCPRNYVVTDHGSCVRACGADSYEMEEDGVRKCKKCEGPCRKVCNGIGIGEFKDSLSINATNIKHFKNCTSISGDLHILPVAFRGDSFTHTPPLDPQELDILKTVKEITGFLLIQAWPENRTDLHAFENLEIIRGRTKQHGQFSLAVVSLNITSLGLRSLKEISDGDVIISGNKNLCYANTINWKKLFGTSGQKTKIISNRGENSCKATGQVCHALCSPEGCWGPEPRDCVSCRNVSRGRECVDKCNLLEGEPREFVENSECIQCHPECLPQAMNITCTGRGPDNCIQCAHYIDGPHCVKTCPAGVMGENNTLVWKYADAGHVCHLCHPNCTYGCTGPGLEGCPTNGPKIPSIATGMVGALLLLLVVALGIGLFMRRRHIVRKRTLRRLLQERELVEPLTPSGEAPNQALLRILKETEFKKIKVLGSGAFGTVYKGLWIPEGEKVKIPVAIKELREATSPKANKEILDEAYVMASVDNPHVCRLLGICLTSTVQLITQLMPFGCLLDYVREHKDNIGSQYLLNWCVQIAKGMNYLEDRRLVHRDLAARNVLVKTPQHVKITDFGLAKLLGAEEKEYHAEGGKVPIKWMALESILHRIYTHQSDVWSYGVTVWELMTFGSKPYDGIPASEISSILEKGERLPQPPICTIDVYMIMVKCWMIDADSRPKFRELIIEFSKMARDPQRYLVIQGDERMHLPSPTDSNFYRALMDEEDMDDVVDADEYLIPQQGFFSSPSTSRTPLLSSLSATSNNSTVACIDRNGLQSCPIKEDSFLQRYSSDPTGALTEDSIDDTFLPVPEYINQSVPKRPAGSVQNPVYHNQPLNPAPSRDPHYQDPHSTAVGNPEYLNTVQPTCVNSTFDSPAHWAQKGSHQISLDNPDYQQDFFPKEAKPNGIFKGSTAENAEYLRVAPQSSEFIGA

SMILES	IC50 [1] [nM]	IC50 [2] [nM]	IC50 [3] [nM]	IC50 [4] [nM]	IC50 [5] [nM]
C=CC(=O)Nc1cccc(Nc2nc(Nc3ccc4c(c3)OC[C@H]3CN(C)CC(=O)N43)ncc2C(F)(F)F)c1 [Compound A9R]	< 100	< 10	–	–	–
NC(=O)c1cnc(Nc2ccc3c(c2)OC[C@H]2CN(S(=O)(=O)c4ccccc4)CCN32)nc1NC1CC1 [Compound C9R]	–	–	< 10	< 50	–
CC(C)S(=O)(=O)N1CCN2c3ccc(Nc4ncc(C(N)=O)c(NC5CC5)n4)cc3OC[C@H]2C1 [Compound C12R]	–	–	< 10	< 10	–
CCc1nc(C(N)=O)c(Nc2ccc3c(c2)OC[C@@H]2COCCN32)nc1NC1CCOCC1 [Compound D2S]	–	–	–	–	< 10
C=CS(=O)(=O)N1CCN2c3ccc(Nc4ncc(C(N)=O)c(NC5CC5)n4)cc3OC[C@H]2C1 [Compound C15R]	–	–	< 50	< 50	–
C=CC(=O)Nc1cccc(Nc2nc(Nc3ccc4c(c3)OC[C@@H]3CN(C(C)=O)CCN43)ncc2C(F)(F)F)c1 [Compound A2S]	< 100	< 10	–	–	–
CS(=O)(=O)N1CCN2c3ccc(Nc4ncc(C(N)=O)c(NC5CC5)n4)cc3OC[C@H]2C1 [Compound C11R]	–	–	< 10	< 10	–
C=CC(=O)Nc1cccc(Nc2nc(Nc3ccc4c(c3)OC[C@H]3CN(C5CC5)CCN43)ncc2C(F)(F)F)c1 [Compound A6R]	< 100	< 10	–	–	–
C=CC(=O)Nc1cccc(Nc2nc(Nc3ccc4c(c3)OC[C@@H]3CN(C)CC(=O)N43)ncc2C(F)(F)F)c1 [Compound A9S]	< 100	< 10	–	–	–
C=CC(=O)Nc1cccc(Nc2nc(Nc3ccc4c(c3)OC[C@H]3CN(CC(F)(F)F)CCN43)ncc2C(F)(F)F)c1 [Compound A7R]	< 500	< 50	–	–	–
CN(C)S(=O)(=O)N1CCN2c3ccc(Nc4ncc(C(N)=O)c(NC5CC5)n4)cc3OC[C@H]2C1 [Compound C14R]	–	–	< 10	< 10	–
C=CC(=O)Nc1cccc(Nc2nc(Nc3ccc4c(c3)OC[C@H]3CNCCN43)ncc2C(F)(F)F)c1 [Compound A3R]	< 50	< 1	–	–	–
CN1CCN2c3ccc(Nc4ncc(C(N)=O)c(NC5CC5)n4)cc3C(=O)CC2C1 (stereo not shown) [Compound C17]	–	–	< 50	< 50	–
C=CC(=O)Nc1cccc(Nc2nc(Nc3ccc4c(c3)OC[C@@H]3CN(C)CCN43)ncc2C(F)(F)F)c1 [Compound A1S]	< 100	< 1	–	–	–
NC(=O)c1cnc(Nc2ccc3c(c2)OC[C@H]2CN(S(=O)(=O)C4CCOCC4)CCN32)nc1NC1CC1 [Compound C13R]	–	–	< 10	< 10	–
C=CC(=O)Nc1cccc(Nc2nc(Nc3ccc4c(c3)OC[C@H]3CN(C(C)=O)CCN43)ncc2C(F)(F)F)c1 [Compound A2R]	< 100	< 10	–	–	–
C=CC(=O)Nc1cccc(Nc2nc(Nc3ccc4c(c3)OC[C@H]3CN(C)CCN43)ncc2C(F)(F)F)c1 [Compound A1R]	< 100	< 1	–	–	–
C=CC(=O)Nc1cccc(Nc2nc(Nc3ccc4c(c3)OC[C@H]3COCCN43)ncc2C(F)(F)F)c1 [Compound A8R]	< 100	< 10	–	–	–
C=CC(=O)Nc1cccc(Nc2nc(Nc3ccc4c(c3)OCC3CN(C)CCN43)ncc2C(F)(F)F)c1 (stereo not shown) [Compound A1]	< 100	< 10	–	–	–
CC(C)(C)OC(=O)N1CCN2c3ccc(Nc4ncc(C(N)=O)c(NC5CC5)n4)cc3OC[C@H]2C1 [Compound C7R]	–	–	< 50	< 50	–
C=CC(=O)Nc1cccc(Nc2nc(Nc3ccc4c(c3)OC[C@H]3CN(CC)CCN43)ncc2C(F)(F)F)c1 [Compound A5R]	< 100	< 1	–	–	–
C=CC(=O)Nc1cccc(Nc2nc(Nc3ccc4c(c3)OC[C@H]3CN(C(=O)C(F)(F)F)CCN43)ncc2C(F)(F)F)c1 [Compound A4R]	< 100	< 10	–	–	–
NC(=O)c1cnc(Nc2ccc3c(c2)OCC2COCCN32)nc1NC1CC1 (stereo not shown) [Compound C18R]	–	–	< 50	< 50	–
C=CC(=O)Nc1cccc(Nc2nc(Nc3ccc4c(c3)OC[C@@H]3COCCN43)ncc2C(F)(F)F)c1 [Compound A8S]	< 100	< 10	–	–	–
C=CC(=O)Nc1cccc(Nc2nc(Nc3ccc4c(c3)OC[C@@H]3CNCCN43)ncc2C(F)(F)F)c1 [Compound A3S]	–	< 1	–	–	–
NC(=O)c1cnc(Nc2ccc3c(c2)OC[C@H]2CN(S(N)(=O)=O)CCN32)nc1NC1CC1 [Compound C16R]	–	–	< 50	< 50	–
NC(=O)c1cnc(Nc2ccc3c(c2)OC[C@H]2CNCCN32)nc1NC1CC1 [Compound C8R]	–	–	< 50	< 10	–
